Experimental data as given in ChEMBL document CHEMBL3046894, “Synthesis and Herbicidal Activity of Pyrimidinyl Salicylic and Thiosalicylic Acids” (J Pestic Sci, 1996).
The source made the active and inactive calls. The rule behind the calls is not given here.

Columns and labels:
Echinochloa crus-galli [1] = assay: Pre-emergence herbicidal activity against Echinochloa crus-galli (barnyard grass) assessed as growth inhibition at 25 g a.i/10 a; type: functional, organism-based
Chenopodium album [2] = assay: Post-emergence herbicidal activity against Chenopodium album assessed as growth inhibition at 25 g a.i/10 a applied 11 days after germination as foliar spray; type: functional, organism-based
Abutilon theophrasti [3] = assay: Post-emergence herbicidal activity against Abutilon theophrasti (velvetleaf) assessed as mortality at 6.3 g a.i/10 a applied 11 days after germination as foliar spray; type: functional; settings: 264 h
Cyperus iria [4] = assay: Pre-emergence herbicidal activity against Cyperus iria assessed as growth inhibition at 25 g a.i/10 a; type: functional, organism-based
Digitaria sanguinalis [5] = assay: Post-emergence herbicidal activity against Digitaria sanguinalis (hairy crabgrass) assessed as growth inhibition at 25 g a.i/10 a applied 11 days after germination as foliar spray; type: functional, organism-based
Digitaria sanguinalis [6] = assay: Pre-emergence herbicidal activity against Digitaria sanguinalis (hairy crabgrass) assessed as growth inhibition at 25 g a.i/10 a; type: functional, organism-based
Amaranthus retroflexus [7] = assay: Pre-emergence herbicidal activity against Amaranthus retroflexus assessed as growth inhibition at 25 g a.i/10 a; type: functional, organism-based
Chenopodium album [8] = assay: Pre-emergence herbicidal activity against Chenopodium album assessed as growth inhibition at 25 g a.i/10 a; type: functional, organism-based
Zea mays [9] = assay: Post-emergence phytotoxicity against Zea mays (maize) assessed as mortality at 1.6 g a.i/10 a applied 11 days after germination as foliar spray; type: organism-based; settings: in vivo, other, 264 h
Amaranthus retroflexus [10] = assay: Post-emergence herbicidal activity against Amaranthus retroflexus assessed as growth inhibition at 25 g a.i/10 a applied 11 days after germination as foliar spray; type: functional, organism-based
Zea mays [11] = assay: Post-emergence phytotoxicity against Zea mays (maize) assessed as mortality at 6.3 g a.i/10 a applied 11 days after germination as foliar spray; type: organism-based; settings: in vivo, other, 264 h
Gossypium hirsutum [12] = assay: Post-emergence phytotoxicity against Gossypium hirsutum (cotton) assessed as mortality at 1.6 g a.i/10 a applied 11 days after germination as foliar spray; type: organism-based; settings: in vivo, other, 264 h
Gossypium hirsutum [13] = assay: Post-emergence phytotoxicity against Gossypium hirsutum (cotton) assessed as mortality at 6.3 g a.i/10 a applied 11 days after germination as foliar spray; type: organism-based; settings: in vivo, other, 264 h
[14] = (§1) Post-emergence phytotoxicity against Glycine max (soybean) assessed as mortality at 1.6 g a.i/10 a applied 11 days after germination as foliar spray; type: organism-based; settings: in vivo, 1.6 g a.i/10 a
Cyperus iria [15] = assay: Post-emergence herbicidal activity against Cyperus iria assessed as growth inhibition at 25 g a.i/10 a applied 11 days after germination as foliar spray; type: functional, organism-based
Echinochloa crus-galli [16] = assay: Post-emergence herbicidal activity against Echinochloa crus-galli (barnyard grass) assessed as growth inhibition at 25 g a.i/10 a applied 11 days after germination as foliar spray; type: functional, organism-based
Persicaria nodosa [17] = assay: Pre-emergence herbicidal activity against Persicaria nodosa assessed as growth inhibition at 25 g a.i/10 a; type: functional, organism-based
Persicaria nodosa [18] = assay: Post-emergence herbicidal activity against Persicaria nodosa assessed as growth inhibition at 25 g a.i/10 a applied 11 days after germination as foliar spray; type: functional, organism-based
Abutilon theophrasti [19] = assay: Post-emergence herbicidal activity against Abutilon theophrasti (velvetleaf) assessed as mortality at 1.6 g a.i/10 a applied 11 days after germination as foliar spray; type: functional; settings: 264 h
Glycine max [20] = assay: Pre-emergence phytotoxicity against Glycine max (soybean) assessed as mortality at 6.3 g a.i/10 a; type: organism-based; settings: in vivo, other
[21] = (§2) Pre-emergence phytotoxicity against Gossypium hirsutum (cotton) assessed as mortality at 6.3 g a.i/10 a; type: organism-based; settings: in vivo, 6.3 g a.i/10 a, read-out: Activity
Zea mays [22] = assay: Pre-emergence phytotoxicity against Zea mays (maize) assessed as mortality at 6.3 g a.i/10 a; type: organism-based; settings: in vivo, other
Xanthium strumarium [23] = assay: Pre-emergence herbicidal activity against Xanthium strumarium (cocklebur) assessed as mortality at 1.6 g a.i/10 a; type: functional
Gossypium hirsutum [24] = assay: Pre-emergence phytotoxicity against Gossypium hirsutum (cotton) assessed as mortality at 1.6 g a.i/10 a; type: organism-based; settings: in vivo, other
Zea mays [25] = assay: Pre-emergence phytotoxicity against Zea mays (maize) assessed as mortality at 1.6 g a.i/10 a; type: organism-based; settings: in vivo, other
Glycine max [26] = assay: Pre-emergence phytotoxicity against Glycine max (soybean) assessed as mortality at 1.6 g a.i/10 a; type: organism-based; settings: in vivo, other
Ipomoea lacunosa = assay: Pre-emergence herbicidal activity against Ipomoea lacunosa assessed as mortality at 1.6 g a.i/10 a; type: functional
Gossypium hirsutum [27] = assay: as §2; type: organism-based; settings: in vivo, other
Glycine max [28] = assay: as §1; type: organism-based; settings: in vivo, other, 264 h
Xanthium strumarium [29] = assay: Pre-emergence herbicidal activity against Xanthium strumarium (cocklebur) assessed as mortality at 6.3 g a.i/10 a; type: functional
Glycine max [30] = assay: Post-emergence phytotoxicity against Glycine max (soybean) assessed as mortality at 6.3 g a.i/10 a applied 11 days after germination as foliar spray; type: organism-based; settings: in vivo, other, 264 h

SMILES | growth inhibition (GI) (Echinochloa crus-galli [1]) | growth inhibition (GI) (Chenopodium album [2]) | growth inhibition (GI) (Cyperus iria [4]) | growth inhibition (GI) (Digitaria sanguinalis [5]) | growth inhibition (GI) (Digitaria sanguinalis [6]) | growth inhibition (GI) (Amaranthus retroflexus [7]) | growth inhibition (GI) (Chenopodium album [8]) | growth inhibition (GI) (Amaranthus retroflexus [10]) | growth inhibition (GI) (Cyperus iria [15]) | growth inhibition (GI) (Echinochloa crus-galli [16]) | growth inhibition (GI) (Persicaria nodosa [17]) | growth inhibition (GI) (Persicaria nodosa [18]) | other results
COc1cc(OC)nc(Oc2cccc(SC)c2C(=O)O)n1 | inactive | Active | inactive | Active | inactive | Active | inactive | Active | Active | Active | Active | Active | mortality at 63 g/ha (Abutilon theophrasti [3]): > 90%; Activity (Zea mays [9]): Toxic; Activity (Zea mays [11]): Toxic; Activity (Gossypium hirsutum [12]): Toxic; Activity (Gossypium hirsutum [13]): Toxic; mortality at 264 h [14]: > 90%; mortality at 16 g/ha (Abutilon theophrasti [19]): > 90%
COc1cc(OC)nc(Sc2cccc(F)c2C(=O)O)n1 | – | – | – | – | – | – | – | – | – | – | – | – | Activity (Glycine max [20]): Non-toxic; mortality [21]: < 50%; Activity (Zea mays [22]): Toxic; Activity (Zea mays [9]): Toxic; Activity (Zea mays [11]): Toxic; Activity (Gossypium hirsutum [12]): Non-toxic; Activity (Gossypium hirsutum [13]): Toxic; mortality at 264 h [14]: > 90%; Activity (Xanthium strumarium [23]): <50%; Activity (Gossypium hirsutum [24]): < 50%; Activity (Zea mays [25]): Toxic; Activity (Glycine max [26]): Non-toxic; Activity (Ipomoea lacunosa): <50%
COc1cc(OC)nc(Oc2cccc(OC(F)F)c2C(=O)O)n1 | Active | Active | Active | Active | Active | Active | Active | Active | Active | Active | Active | Active | Activity (Glycine max [20]): Toxic; Activity (Gossypium hirsutum [27]): Non-toxic; mortality at 63 g/ha (Abutilon theophrasti [3]): > 90%; Activity (Zea mays [22]): Toxic; Activity (Zea mays [9]): Toxic; Activity (Zea mays [11]): Toxic; Activity (Gossypium hirsutum [12]): Toxic; Activity (Gossypium hirsutum [13]): Toxic; mortality at 264 h [14]: > 90%; mortality at 16 g/ha (Xanthium strumarium [23]; Xanthium strumarium, pre-emergence): < 5%; Activity (Gossypium hirsutum [24]): Non-toxic; Activity (Zea mays [25]): Non-toxic; Activity (Glycine max [26]): Toxic; mortality at 16 g/ha (Abutilon theophrasti [19]): > 90%; mortality at 16 g/ha (Ipomoea lacunosa; Ipomoea lacunosa, pre-emergence): < 5%
COc1cc(OC)nc(Oc2cc(N)ccc2C(=O)O)n1 | inactive | Active | inactive | inactive | inactive | inactive | inactive | Active | Active | inactive | inactive | Active | –
COc1cc(OC)nc(Oc2cccc(-n3cccc3)c2C(=O)O)n1 | Active | Active | Active | Active | Active | Active | Active | Active | Active | Active | Active | Active | –
CCOCCOc1cccc(Oc2nc(OC)cc(OC)n2)c1C(=O)O | Active | Active | Active | Active | Active | Active | Active | Active | Active | Active | Active | Active | –
COc1cc(OC)nc(Sc2cccc([N+](=O)[O-])c2C(=O)O)n1 | – | – | – | – | – | – | – | – | – | – | – | – | Activity (Glycine max [20]): Toxic; mortality [21]: < 50%; Activity (Zea mays [22]): Toxic; Activity (Zea mays [9]): Non-toxic; Activity (Zea mays [11]): Non-toxic; Activity (Gossypium hirsutum [12]): Non-toxic; Activity (Gossypium hirsutum [13]): Non-toxic; Activity (Glycine max [28]): Toxic; Activity (Xanthium strumarium [29]): <50%; Activity (Xanthium strumarium [23]): <50%; Activity (Gossypium hirsutum [24]): < 50%; Activity (Zea mays [25]): Non-toxic; Activity (Glycine max [30]): Toxic; Activity (Glycine max [26]): Non-toxic
CCCCOc1cccc(Oc2nc(OC)cc(OC)n2)c1C(=O)O | Active | Active | Active | Active | Active | Active | Active | Active | Active | Active | inactive | Active | –
COc1cc(OC)nc(Oc2ccc(Cl)cc2C(=O)O)n1 | inactive | Active | inactive | inactive | inactive | Active | Active | Active | Active | inactive | inactive | inactive | –
CCSc1cccc(Oc2nc(OC)cc(OC)n2)c1C(=O)O | inactive | Active | inactive | inactive | inactive | Active | inactive | Active | Active | Active | inactive | Active | –
CNc1ccc(Oc2nc(OC)cc(OC)n2)c(C(=O)O)c1 | inactive | Active | Active | Active | inactive | Active | Active | Active | Active | Active | Active | Active | –
COc1cc(OC)nc(Oc2cccc(-c3ccccc3)c2C(=O)O)n1 | Active | Active | Active | Active | Active | Active | Active | Active | Active | Active | Active | Active | –
COc1cc(OC)nc(Oc2c(C)cccc2C(=O)O)n1 | Active | inactive | Active | inactive | inactive | Active | Active | Active | Active | inactive | inactive | Active | –
COc1cc(OC)nc(Oc2ccc(I)cc2C(=O)O)n1 | inactive | inactive | inactive | inactive | inactive | inactive | inactive | inactive | Active | Active | inactive | Active | –
